This series is described as follows: Monitoring of the plasma concentration of the main oligosaccharides of a VLMWH in human volunteers (plasma filtration + anion-exchange HPLC). In kind it is in vivo. The protocol:
A plasma sample with a volume of between 100 and 1000 μl is withdrawn and, if appropriate, the internal standard is added to the latter.
After homogenization, the resulting solution is introduced into a 30 kD Ultrafree 05 ultrafiltration cartridge (Millipore) rinsed beforehand with 250 μl of water by centrifuging at 10 000 rev/min for 5 minutes. The plasma is introduced into the upper part of the cartridge once or twice, if the amounts to be filtered are greater than 500 μl.
The cartridge is centrifuged at 10 000 rev/min for between 1 and 2 hours and then the filtrate is withdrawn. If appropriate, the second part of the plasma to be filtered is introduced into the upper part of the cartridge and the latter is again centrifuged. The exact amount of plasma introduced will have been weighed. The cartridge is centrifuged until the protein residue in the upper part of the cartridge represents no more than approximately 10% of the initial part.
The filtrate is withdrawn and 210 μl of 3M KCl per ml of plasma filtered are added to the concentrate.
After homogenization, the cartridge is centrifuged at 10 000 rev/min for between 1 and 4 hours. The cartridge is centrifuged until the protein residue in the upper part of the cartridge represents no more than approximately 10% of the initial part.
The second filtrate is withdrawn and 210 μl of 3M KCl per ml of plasma filtered are added a second time to the concentrate.
The third filtrate is withdrawn and 250 μl of water per ml of plasma filtered are added.
The filtrates are combined and diluted 5 fold in water, and the whole is injected directly in anion-exchange HPLC. Immediately before injection, the pH of the injected solution is adjusted to 3 by addition of 1N HCl.
The filtered plasma is analyzed by anion-exchange HPLC.
The columns used are IonPAc As11 columns (Dionex), with a length of 25 cm and an internal diameter of 2 mm. The detector used is a UV spectrophotometer equipped with an array of diodes.
The whole of the […] is injected after adjustment of the pH to 3 by addition of N HCl. The flow rate chosen is 0.22 ml/min; the column temperature is 40° C.
Elution is carried out in gradient mode. The two solutions used are:
Solvent A: NaH2PO4 2.5 mM, brought to pH 2.9 by addition of H3PO4
Solvent B: NaClO4 1N, NaH2PO4 2.5 mM, brought to pH 3.0 by addition of H3PO4
The elution gradient is as follows:
T=0 min: % B=3; T=40 min: % B=60; T=60 min: % B=80
A VLMWH with an average molecular weight of 2500 Da is administered at the target dose of 1.4 mg/kg to human volunteers. Blood samples are withdrawn at the times 0, 0.25 h, 0.5 h, 0.75 h, 1 h, 1.25 h, 1.5 h, 2 h, 2.5 h, 3 h, 3.5 h, 4 h, 4.5 h, 5 h, 6 h, 7 h, 8 h, 9 h, 10 h, 12 h, 14 h and 24 h after administration.
As the VLMWH used is a complex mixture of oligosaccharides, the study was limited to certain components chosen from this mixture.

Setting [1] is: 0 h after administration of VLMWH (2500 Da) 1.4 mg/kg.
Where [2] appears, read: 0.25 h after administration of VLMWH (2500 Da) 1.4 mg/kg.
Where [3] appears, read: 0.5 h after administration of VLMWH (2500 Da) 1.4 mg/kg.
[4] abbreviates: 0.75 h after administration of VLMWH (2500 Da) 1.4 mg/kg.
Where [5] appears, read: 1 h after administration of VLMWH (2500 Da) 1.4 mg/kg.
The mark [6] stands for this setting: 1.25 h after administration of VLMWH (2500 Da) 1.4 mg/kg.
The mark [7] stands for this setting: 1.5 h after administration of VLMWH (2500 Da) 1.4 mg/kg.
Where [8] appears, read: 2 h after administration of VLMWH (2500 Da) 1.4 mg/kg.
The mark [9] stands for this setting: 2.5 h after administration of VLMWH (2500 Da) 1.4 mg/kg.
[10] abbreviates: 3 h after administration of VLMWH (2500 Da) 1.4 mg/kg.
Where [11] appears, read: 3.5 h after administration of VLMWH (2500 Da) 1.4 mg/kg.
Setting [12] is: 4 h after administration of VLMWH (2500 Da) 1.4 mg/kg.
[13] abbreviates: 4.5 h after administration of VLMWH (2500 Da) 1.4 mg/kg.
The mark [14] stands for this setting: 5 h after administration of VLMWH (2500 Da) 1.4 mg/kg.
Where [15] appears, read: 6 h after administration of VLMWH (2500 Da) 1.4 mg/kg.
Where [16] appears, read: 7 h after administration of VLMWH (2500 Da) 1.4 mg/kg.
Setting [17] is: 8 h after administration of VLMWH (2500 Da) 1.4 mg/kg.
Where [18] appears, read: 9 h after administration of VLMWH (2500 Da) 1.4 mg/kg.
Setting [19] is: 10 h after administration of VLMWH (2500 Da) 1.4 mg/kg.
[20] abbreviates: 12 h after administration of VLMWH (2500 Da) 1.4 mg/kg.
[21] abbreviates: 14 h after administration of VLMWH (2500 Da) 1.4 mg/kg.

The structures appear in SMILES notation.

Take `O=C(O)C1=CC(O)C(OS(=O)(=O)O)C(OC2C(COS(=O)(=O)O)OC(OC3C(C(=O)O)OC(OC4C(COS(=O)(=O)O)OC(O)C(NS(=O)(=O)O)C4O)C(OS(=O)(=O)O)C3O)C(NS(=O)(=O)O)C2O)O1` (stereo not shown) [ΔIsIs]: the plasma concentration is, setting by setting: under setting [1], 0 nM; under setting [2], 160 nM; under setting [3], 240 nM; under setting [4], 210 nM; under setting [5], 200 nM; under setting [6], 190 nM. Also, the plasma concentration runs as follows: under setting [7], 190 nM; under setting [8], 150 nM; under setting [9], 100 nM; under setting [10], 90 nM; under setting [11], 70 nM; under setting [12], 70 nM. Also, the plasma concentration is, setting by setting: under setting [13], 60 nM; under setting [14], 50 nM; under setting [15], 40 nM; under setting [16], 30 nM; under setting [17], 20 nM; under setting [18], 10 nM. In addition, the plasma concentration under setting [19] was found to be 10 nM, the plasma concentration under setting [20] is 10 nM and the plasma concentration under setting [21] is 0 nM.

With `O=C(O)C1=CC(O)C(OS(=O)(=O)O)C(OC2C(COS(=O)(=O)O)OC(OC3C(C(=O)O)OC(OC4C(COS(=O)(=O)O)OC(OC5C(C(=O)O)OC(OC6C(COS(=O)(=O)O)OC(O)C(NS(=O)(=O)O)C6O)C(OS(=O)(=O)O)C5O)C(NS(=O)(=O)O)C4O)C(OS(=O)(=O)O)C3O)C(NS(=O)(=O)O)C2O)O1` (stereo not shown) [ΔIsIsIs], the plasma concentration under setting [1] came to 0 nM; the plasma concentration under setting [2] turned out to be 20 nM; the plasma concentration under setting [3] was found to be 40 nM; the plasma concentration under setting [4] was 30 nM; the plasma concentration under setting [5] came to 40 nM; the plasma concentration under setting [6] turned out to be 40 nM. Besides, the plasma concentration reads like this: under setting [7], 30 nM; under setting [8], 30 nM; under setting [9], 20 nM; under setting [10], 20 nM; under setting [11], 20 nM; under setting [12], 10 nM. Further, the plasma concentration runs as follows: under setting [13], 10 nM; under setting [14], 10 nM; under setting [15], 10 nM; under setting [16], 10 nM; under setting [17], 0 nM; under setting [18], 0 nM. Besides, the plasma concentration reads like this: under setting [19], 0 nM; under setting [20], 0 nM; under setting [21], 0 nM.

With `O=C(O)C1=CC(O)C(OS(=O)(=O)O)C(OC2C(COS(=O)(=O)O)OC(O)C(NS(=O)(=O)O)C2O)O1` (stereo not shown) [ΔIs], the plasma concentration stood at 0 nM under setting [1]; 240 nM under setting [2]; 300 nM under setting [3]; 260 nM under setting [4]; 230 nM under setting [5]; 200 nM under setting [6]. The plasma concentration runs as follows: under setting [7], 190 nM; under setting [8], 160 nM; under setting [9], 110 nM; under setting [10], 100 nM; under setting [11], 80 nM; under setting [12], 70 nM. The plasma concentration runs as follows: under setting [13], 60 nM; under setting [14], 40 nM; under setting [15], 30 nM; under setting [16], 30 nM; under setting [17], 20 nM; under setting [18], 10 nM. Moreover, the plasma concentration worked out at 10 nM under setting [19], 0 nM under setting [20] and 0 nM under setting [21].

For the compound `CC(=O)NC1C(OC2C(C(=O)O)OC(OC3C(COS(=O)(=O)O)OC(OC4C(C(=O)O)OC(OC5C(COS(=O)(=O)O)OC(O)C(NS(=O)(=O)O)C5O)C(OS(=O)(=O)O)C4O)C(NS(=O)(=O)O)C3OS(=O)(=O)O)C(O)C2O)OC(COS(=O)(=O)O)C(OC2OC(C(=O)O)=CC(O)C2O)C1O` (stereo not shown) [ΔIIaIIsIs], the plasma concentration reads like this: under setting [1], 0 nM; under setting [2], 50 nM; under setting [3], 100 nM; under setting [4], 100 nM; under setting [5], 100 nM; under setting [6], 120 nM. Besides, the plasma concentration amounted to 110 nM under setting [7]; 110 nM under setting [8]; 90 nM under setting [9]; 80 nM under setting [10]; 90 nM under setting [11]; 100 nM under setting [12]. Also, the plasma concentration is 100 nM under setting [13]; 90 nM under setting [14]; 80 nM under setting [15]; 100 nM under setting [16]; 70 nM under setting [17]; 70 nM under setting [18]. Moreover, the plasma concentration by setting is: under setting [19], 70 nM; under setting [20], 80 nM; under setting [21], 70 nM; (24 h after administration of VLMWH (2500 Da) 1.4 mg/kg) 50 nM.

The values above are taken from patent US7575930B2, “Method for analyzing oligosaccharides from blood plasma” (priority 2005, dated 2009).
